# Results as given in PMC10085937 (Clinical Pharmacokinetics, 2023).
# “Also recorded” adds a separate entry of the source. Like-named read-outs stand apart in the source and are kept apart here.
# Key:
# OATP2B1 [1] = conditions: in vitro; ref data on file, Gilead Sciences, Inc.; cited from earlier work
# OATP2B1 [2] = conditions: in vitro; cited from earlier work
# MATE2-K = conditions: in vitro; cited from earlier work
# OATP1B3 [3] = conditions: in vitro; ref data on file, Gilead Sciences, Inc.; cited from earlier work
# BCRP = conditions: in vitro; cited from earlier work
# [4] = system: multidrug and toxin extrusion protein (MATE) 1; conditions: in vitro; cited from earlier work
# NTCP = conditions: in vitro; cited from earlier work
# [5] = dose range of 10 to 100 mg; cited from earlier work
# CYP2C8 [6] = conditions: in vitro; cited from earlier work
# [7] = system: sodium taurocholate co-transporting polypeptide (NTCP); conditions: in vitro; cited from earlier work
# [8] = system: organic anion transporter (OAT)1; conditions: in vitro; cited from earlier work
# OAT3 = conditions: in vitro; cited from earlier work
# CYP3A [9] = conditions: in vitro; cited from earlier work
# [10] = cited from earlier work
# CYP2C8 [11] = conditions: in vitro; rCYP2C8 showing the fastest rate of metabolism; cited from earlier work
# bile salt export pump = conditions: in vitro; cited from earlier work
# [12] = cited from earlier work; remark: listed apart in the source
# [13] = system: breast cancer resistance protein (BCRP); conditions: in vitro; cited from earlier work
# CYP2C9 = conditions: in vitro; cited from earlier work
# CYP2C19 = conditions: in vitro; cited from earlier work
# OATP1B1 [14] = conditions: in vitro; ref data on file, Gilead Sciences, Inc.; cited from earlier work
# P-glycoprotein (P-gp) = conditions: in vitro; cited from earlier work
# P-gp = conditions: in vitro; cited from earlier work
# [15] = system: organic cation transporter (OCT)2; conditions: in vitro; cited from earlier work
# OATP1B1 [16] = conditions: in vitro; cited from earlier work
# OATP1B3 [17] = conditions: in vitro; cited from earlier work
# [18] = assay type: in vivo, human; conditions: for Effect of grapefruit juice on cilofexor exposure (AUC and Cmax): grapefruit juice 16 ounces; for Effect of grapefruit juice on cilofexor exposure (AUC and Cmax) / Effect of multiple-dose voriconazole on cilofexor exposure (AUC): vs cilofexor alone; for Effect of multiple-dose voriconazole on cilofexor exposure (AUC): voriconazole 200 mg BID
# CYP3A [19] = conditions: in vitro; cited from earlier work; remark: listed apart in the source
# [20] = assay type: in vivo, human; conditions: for Effect of multiple-dose cilofexor on midazolam exposure (AUC and Cmax): midazolam 2 mg, vs midazolam alone; for Effect of multiple-dose cilofexor on pravastatin exposure (AUC and Cmax): pravastatin 40 mg; for Effect of multiple-dose cilofexor on pravastatin exposure (AUC and Cmax) / Effect of multiple-dose cilofexor on rosuvastatin exposure (AUC and Cmax): vs alone; for Effect of multiple-dose cilofexor on rosuvastatin exposure (AUC and Cmax): rosuvastatin 10 mg
# [21] = following multiple-dose rifampin 600 mg
# [22] = with multiple-dose gemfibrozil 600 mg BID
# [23] = with single-dose cyclosporine 600 mg
# [24] = with single-dose rifampin 600 mg
compound,measurement,setting,value
O=C(O)c1ccnc(N2CC(O)(c3ccc(OCc4c(-c5c(Cl)cccc5Cl)noc4C4CC4)cc3Cl)C2)c1 [Cilofexor],IC50,OATP2B1 [1],210 nM
same,Substrate of OATP2B1,OATP2B1 [2],substrate
same,Inhibition of MATE2-K,MATE2-K,little to no inhibition
same,IC50,OATP1B3 [3],410 nM
same,Inhibition of BCRP,BCRP,little to no inhibition
same,Inhibition of MATE1,[4],little to no inhibition
same,Inhibition of NTCP,NTCP,little to no inhibition
same,Dose proportionality of plasma exposure,[5],less than dose-proportional
same,Mechanism-based inhibition,CYP2C8 [6],not a mechanism-based inhibitor
same,Substrate of NTCP,[7],substrate
same,Inhibition of OAT1,[8],little to no inhibition
same,Inhibition of OAT3,OAT3,little to no inhibition
same,Mechanism-based inhibition,CYP3A [9],not a mechanism-based inhibitor
same,Cilofexor dose eliminated in feces,[10],96.7%
same,Dose remaining as intact cilofexor (feces),[10],34.1%
same,Substrate of CYP2C8,CYP2C8 [11],substrate
same,Inhibition of bile salt export pump,bile salt export pump,little to no inhibition
same,Protein binding in human plasma,[12],> 99%
same,Substrate of BCRP,[13],substrate
same,Mechanism-based inhibition,CYP2C9,not a mechanism-based inhibitor
same,Substrate of CYP2C19,CYP2C19,substrate
same,IC50,OATP1B1 [14],680 nM
same,Substrate of P-gp,P-glycoprotein (P-gp),substrate
same,Inhibition of P-gp,P-gp,little to no inhibition
same,Inhibition of OCT2,[15],little to no inhibition
same,Substrate of OATP1B1,OATP1B1 [16],substrate
same,Substrate of OATP1B3,OATP1B3 [17],substrate
same,Cilofexor AUC compared with cilofexor alone,[18]; [21],33%
same,Cilofexor Cmax compared with cilofexor alone,[18]; [21],35%
same,Effect of grapefruit juice on cilofexor exposure (AUC and Cmax),[18],similar
same,Effect of grapefruit juice on cilofexor exposure (AUC and Cmax),[18]; listed as cilofexor,did not affect
same,Effect of multiple-dose voriconazole on cilofexor exposure (AUC),[18],similar
same,Effect of multiple-dose voriconazole on cilofexor exposure (AUC),[18]; listed as cilofexor,did not affect; also recorded: did not impact
same,Cilofexor AUC compared with cilofexor alone,[18]; [22],175%
same,Cilofexor Cmax compared with cilofexor alone,[18]; [22],139%
same,Cilofexor Cmax lower than cilofexor alone,[18]; with multiple-dose voriconazole,23%
same,Median cilofexor t½ longer than cilofexor alone,[18]; with single-dose cyclosporine,approximately 2.5 fold
same,Cilofexor AUC compared with cilofexor alone,[18]; [23],651%
same,Cilofexor Cmax compared with cilofexor alone,[18]; [23],512%
same,Median cilofexor t½ longer than cilofexor alone,[18]; with single-dose rifampin,approximately 2.8 fold
same,Cilofexor AUC compared with cilofexor alone,[18]; [24],795%
same,Cilofexor Cmax compared with cilofexor alone,[18]; [24],547%
same,Substrate of CYP3A,CYP3A [19],substrate
Cc1ncc2n1-c1ccc(Cl)cc1C(c1ccccc1F)=NC2 [midazolam],Effect of multiple-dose cilofexor on midazolam exposure (AUC and Cmax),[20],did not affect; also recorded: did not alter
same,Effect of multiple-dose cilofexor on midazolam exposure (AUC and Cmax),[20]; listed as Midazolam,similar
"CC(C)c1c(C(=O)Nc2ccccc2O)c(-c2ccccc2)c(-c2ccc(F)cc2)n1CC[C@@H](O)C[C@@H](O)CC(=O)O [o-OH-atorvastatin, o-hydroxyatorvastatin]",o-OH-atorvastatin AUC and Cmax with multiple-dose cilofexor compared to atorvastatin alone,[20]; atorvastatin 10 mg,similar
CC[C@H](C)C(=O)O[C@H]1C[C@H](O)C=C2C=C[C@H](C)[C@H](CC[C@@H](O)C[C@@H](O)CC(=O)O)[C@H]21 [pravastatin],Effect of multiple-dose cilofexor on pravastatin exposure (AUC and Cmax),[20],did not affect; also recorded: did not alter
same,Effect of multiple-dose cilofexor on pravastatin exposure (AUC and Cmax),[20]; listed as Pravastatin,similar
CC(C)c1nc(N(C)S(C)(=O)=O)nc(-c2ccc(F)cc2)c1/C=C/[C@@H](O)C[C@@H](O)CC(=O)O [rosuvastatin],Effect of multiple-dose cilofexor on rosuvastatin exposure (AUC and Cmax),[20],did not alter
same,Effect of multiple-dose cilofexor on rosuvastatin exposure (AUC and Cmax),[20]; listed as Rosuvastatin,similar
